For 13 compounds, TGI and GI50 results are on record in PubChem BioAssay (NCI).

Test systems include HCC-2998 colon; HCT-116 colon; HOP-62 NSCLC; OVCAR-4 ovarian; SNB-19 CNS; SNB-75 CNS; UACC-62 melanoma; DU-145 prostate; MDA-MB-231 breast; NCI/ADR-RES ovarian; HS 578T breast.
Experiment in all cases: inhibition of tumour cell growth, NCI panel, 48 h

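Method: 48-hour compound exposure of cells in 96-well plates, five concentrations, linear interpolation of endpoints. GI50 is the concentration that inhibits growth by half. TGI is the concentration that stops growth completely.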 *1 amine or outer side, *2 acyl side, *3 side chain or, on linkers, in order; H or OH if unused. Where a SMILES comes first, the peptide text is derived from it. Bridges are numbered along the chain shown (N, C = ends). Roman numbers before positions name the chains, in order. [ ]: non-standard residue; d: D form. Actinocin(9to1) = Cc1c2oc3c(C)ccc(C(=O)[*:1])c3nc-2c(C(=O)[*:2])c(N)c1=O; NMeH = CN[CH](Cc1c[nH]cn1)C(=O)O; Sar = CNCC(=O)O

As for `COc1ccccc1OCC(COC(=O)Nc1ccccc1)OC(=O)Nc1ccccc1` (stereo not given), the TGI in the test on HCC-2998 colon was more than 100 µM; in the test with HCT-116 colon it was more than 100 µM; in the test on HOP-62 NSCLC, more than 100 µM; in the test on OVCAR-4 ovarian, more than 100 µM; in the test on SNB-19 CNS, more than 100 µM; in the test on SNB-75 CNS, 45.6 µM. In addition, the TGI in the test on UACC-62 melanoma is more than 100 µM.
Turning to `O=C(COc1ccc(OCC(=O)N2C(=O)CC(=O)N(c3ccc(Cl)cc3)C2=S)cc1)N1C(=O)CC(=O)N(c2ccc(Cl)cc2)C1=S`, the TGI in the test with DU-145 prostate was more than 100 µM; in the test with HCC-2998 colon, more than 100 µM; in the test on HCT-116 colon, 25.2 µM; in the test with MDA-MB-231 breast, more than 100 µM; in the test with NCI/ADR-RES ovarian it was 93.4 µM; in the test on OVCAR-4 ovarian, more than 100 µM. In addition, the TGI in the test with SNB-19 CNS is more than 100 µM; in the test on SNB-75 CNS it was more than 100 µM; with UACC-62 melanoma it was 60.5 µM.
For the compound `COC(=O)[C@H](Cc1c[nH]c2ccccc12)NP(=O)(OCCC#N)OCC1OC(n2cc(C)c(=O)[nH]c2=O)CC1N=[N+]=[N-]` (stereo not given in full), the TGI in the test on DU-145 prostate, in the test on HCC-2998 colon, in the test with HCT-116 colon, in the test on HOP-62 NSCLC, in the test with MDA-MB-231 breast and in the test with NCI/ADR-RES ovarian was more than 100 µM throughout. Besides, the TGI with OVCAR-4 ovarian, in the test with SNB-19 CNS, in the test with SNB-75 CNS and with UACC-62 melanoma was more than 100 µM each time.
As to `Cc1c(CNc2ccc(C(=O)NC(CCCNC(=O)c3ccccc3C(=O)O)C(=O)O)cc2)cnc2nc(N)nc(N)c12` (stereo not given), the TGI in the test on DU-145 prostate, with MDA-MB-231 breast, in the test on NCI/ADR-RES ovarian and with SNB-19 CNS was more than 100 µM throughout. Besides, the GI50 in the test on HCC-2998 colon is 0.167 µM; in the test with MDA-MB-231 breast, more than 100 µM.
As to `CSC(SC)=C(C#N)C(=O)Nc1cccc(Cl)c1`, the TGI in the test on HCC-2998 colon, in the test with HCT-116 colon, with HOP-62 NSCLC, with HS 578T breast, in the test on MDA-MB-231 breast and with NCI/ADR-RES ovarian was more than 100 µM throughout. Moreover, the TGI in the test with OVCAR-4 ovarian, with SNB-19 CNS, with SNB-75 CNS and in the test on UACC-62 melanoma was more than 100 µM each time.
Consider `O=c1[nH]c(=O)n(C2CC(O)C(CO)O2)cc1Oc1ccccc1` (stereo not given), for which the TGI in the test with DU-145 prostate, with HCT-116 colon, in the test with HOP-62 NSCLC, in the test on HS 578T breast, in the test on MDA-MB-231 breast and in the test on NCI/ADR-RES ovarian was more than 100 µM in each case. Besides, the TGI with OVCAR-4 ovarian, in the test on SNB-19 CNS, in the test on SNB-75 CNS and with UACC-62 melanoma was more than 100 µM throughout.
For the compound `Cc1c2oc3c(C)ccc(C(=O)NC4C(=O)NC(C(C)C)C(=O)N5CCCC5C(=O)N(C)CC(=O)N(C)C(Cc5cnc[nH]5)C(=O)OC4C)c3nc-2c(C(=O)NC2C(=O)NC(C(C)C)C(=O)N3CCCC3C(=O)N(C)CC(=O)N(C)C(Cc3cnc[nH]3)C(=O)OC2C)c(N)c1=O` (stereo not given) (I: TVP[Sar][NMeH] / II: TVP[Sar][NMeH]; ester I:1-I:C, II:1-II:C; linker I:N-II:N via Actinocin(9to1); configuration not given here), the TGI with HCC-2998 colon, in the test with HOP-62 NSCLC, with HS 578T breast, in the test with MDA-MB-231 breast, in the test on NCI/ADR-RES ovarian and in the test on OVCAR-4 ovarian was more than 100 µM each time. Besides, the TGI in the test with SNB-19 CNS, with SNB-75 CNS and in the test on UACC-62 melanoma was more than 100 µM in each case.
Turning to `COc1ccc(C2C3=C(N=C4SC(C(C)=O)=C(C)N42)c2ccccc2CC3)cc1` (stereo not given), the TGI in the test with DU-145 prostate, in the test with HCC-2998 colon, in the test on HCT-116 colon, in the test on HOP-62 NSCLC, with HS 578T breast and in the test with MDA-MB-231 breast was more than 100 µM throughout. Also, the TGI with OVCAR-4 ovarian, in the test with SNB-19 CNS, with SNB-75 CNS and in the test on UACC-62 melanoma was more than 100 µM each time.
On to `c1nc(NCCc2cnc[nH]2)c2[nH]cnc2n1`, for which the TGI in the test with DU-145 prostate, with HCT-116 colon, in the test on HOP-62 NSCLC, in the test on HS 578T breast, with MDA-MB-231 breast and in the test on NCI/ADR-RES ovarian was more than 100 µM in each case. Besides, the TGI in the test on OVCAR-4 ovarian, in the test on SNB-19 CNS, in the test with SNB-75 CNS and in the test with UACC-62 melanoma was more than 100 µM in each case.
`COc1ccc(-n2c(=O)c3[nH]c(=S)[nH]c3n(-c3ccc(OC)cc3)c2=S)cc1`: the TGI in the test on DU-145 prostate, in the test with HCC-2998 colon, with HCT-116 colon, in the test with HOP-62 NSCLC, with MDA-MB-231 breast and in the test with NCI/ADR-RES ovarian was more than 100 µM each time. Further, the TGI with OVCAR-4 ovarian, in the test with SNB-75 CNS and in the test with UACC-62 melanoma was more than 100 µM throughout.
On to `CC1=NN(c2cccc(Cl)c2)C2(C1=Cc1ccc(O)cc1)C(Cl)C(=O)N2c1nc2ccccc2s1` (stereo not given), for which the TGI in the test on DU-145 prostate is 67.9 µM; in the test with HCC-2998 colon it was 35 µM; in the test on HCT-116 colon, 31.3 µM; in the test with HOP-62 NSCLC, 51.8 µM; in the test with HS 578T breast it was more than 100 µM; in the test with MDA-MB-231 breast it was 76.1 µM. Besides, the TGI with NCI/ADR-RES ovarian was 59.7 µM; with OVCAR-4 ovarian, more than 100 µM.
Consider `C1=NCCNCCNCCN=Cc2ccc(cc2)OCc2cccc(n2)COc2ccc1cc2`, for which the TGI in the test with DU-145 prostate, in the test on HCT-116 colon, with HOP-62 NSCLC, in the test on HS 578T breast, with MDA-MB-231 breast and with NCI/ADR-RES ovarian was more than 100 µM each time. Besides, the TGI with OVCAR-4 ovarian, in the test on SNB-19 CNS, with SNB-75 CNS and in the test on UACC-62 melanoma was more than 100 µM throughout.
Regarding `CC(C(=O)OCc1ccccc1)N(Cc1ccccc1)Cc1ccccc1` (stereo not given), the TGI in the test on HCC-2998 colon, in the test with HCT-116 colon, in the test with HOP-62 NSCLC, in the test on OVCAR-4 ovarian, with SNB-19 CNS and in the test on SNB-75 CNS was more than 100 µM each time. For the same compound, the TGI with UACC-62 melanoma is more than 100 µM.
